Laboratory results reported in US20170216328A1, “METHODS AND COMPOSITIONS FOR MICROBIOME ALTERATION” (Ritter Pharmaceuticals, Inc., priority 2014, published 2017).

Test system: Bifidobacterium species and strains
Assay: Comparative growth of Bifidobacterium species and strains in scratch MRS with 2% carbohydrate
Type: cell-based
Protocol: The objective of the study was to determine the ability of various Bifidobacterium species and strains to grow on galactooligosaccharides
The growth of Lactobacillus and Bifidobacterium strains was evaluated in scratch MRS (Table 16) supplemented with 2% of a carbohydrate solution. The carbohydrates used in the experiments were: Glucose—Fisher; Lactose—Fisher; GOS1-95% GOS purity from Inalco SPA—Provided by Ritter Pharmaceuticals; GOS2-90% GOS purity from GTC—provided by Ritter Pharmaceuticals.
Carbohydrate stock solutions were filter sterilized and then added to either a scratch MRS formulation (Table 16), or a semisynthetic medium (Table 17).
Lactobacillus and Bifidobacterium cultures were propagated in MRS broth overnight, and then transferred once through the test medium. For growth experiments, cultures were inoculated into the MRS scratch medium containing one of the 4 carbohydrates to be examined. Growth was monitored either: **automatically, using a FLUOStar OPTIMA microtiter plate reader to monitor the change in absorbance (A600) as a function of the time. The strains were incubated at 37 C aerobically for these experiments; or ** manually, using a standard spectrophotometer to monitor the change in OD600 nm over time, in 5 ml liquid culture tubes. These cultures were incubated anaerobically at 37° C. in a COY anaerobic chamber, flushed with anaerobic gas. […]

SMILES: OC[C@H]1O[C@@H](O[C@H]2[C@H](O)[C@@H](O)C(O)O[C@@H]2CO)[C@H](O)[C@@H](O)[C@H]1O (stereo partly shown) [lactose]
- Growth of Bifidobacterium strains on lactose: none of the Bifidobacterium strains used in these experiments grew on lactose, except for B. pseudolongum
